This is an account of results in patent US9783524B2, “Protein tyrosine kinase modulators and methods of use” (BETTA PHARMACEUTICALS CO., LTD., priority 2013, dated 2017).

The subject of one assay is ALK (h). The assay is classed as biochemical, human. The following applies: 0.1 μM test compound, 10 μM ATP; remaining activity relative to DMSO control = 100%.
Another assay relates to EGFR (h). The class given is biochemical, human.
The next assay concerns EGFR (T790M) (h). The assay is classed as biochemical, human.
The subject of assay [1] is H1975 (EGFR L858R/T790M) NSCLC cells. The experiment in a line: Cell proliferation assay (MTS cell viability). The class given is cell-based. Conditions: Homo sapiens, NCI-H1975, 72 h, 3 days of exposure.
The test system of assay [2] is HCC827 (EGFR Del) NSCLC cells. The experiment in a line: Cell proliferation assay (MTS cell viability). The class given is cell-based. The following applies: Homo sapiens, 72 h, 3 days of exposure.
For assay [3], the system named is A549 (EGFR WT) NSCLC cells. Description: Cell proliferation assay (MTS cell viability). The assay is classed as cell-based. Conditions: Homo sapiens, 72 h, 3 days of exposure.
The next assay relates to A431 (EGFR WT) cells. The experiment in a line: Cell proliferation assay (MTS cell viability). The assay is classed as cell-based. The following applies: Homo sapiens, A-431, 72 h, 3 days of exposure.
A further assay relates to lung cancer. Conditions: all lung cancer patients, not selected for mutant EGFR; cited from earlier work.
Another assay has as its system EGFR (L858R) (h). The assay is classed as biochemical, human. Conditions: 0.1 μM test compound, 10 μM ATP; remaining activity relative to DMSO control = 100%.
Another assay has as its system EGFR (T790M, L858R) (h). The assay is classed as biochemical, human. The following applies: 0.1 μM test compound, 10 μM ATP; remaining activity relative to DMSO control = 100%.
Assay [4] deals with activated and resistant T790M forms of EGFR. Description: In vitro cellular assays, overall statement. The following applies: result in words. The class given is cell-based.
Setting [5] is: 0.1 μM test compound, 10 μM ATP, remaining activity relative to DMSO control = 100%.

Like-named read-outs stand apart in the source and are kept apart here.

Turning to `C=CC(=O)Nc1cc(Nc2ncc(Cl)c(Nc3ccccc3C(=O)C(=O)N(C)C)n2)c(OC)cc1N1CCN(C)CC1` [Example 74, N-(5-(5-chloro-4-(2-(2-(dimethylamino)-2-oxoacetyl)phenylamino)pyrimidin-2-ylamino)-4-methoxy-2-(4-methylpiperazin-1-yl)phenyl)acrylamide], the “Activity (control) % ALK (h)” value in the assay on ALK (h) stood at 9%. In the assay on EGFR (h), the “Activity (control) % EGFR (h)” value turned out to be 110%. Also, the “Activity (control) % EGFR (T790M) (h)” value in the assay with EGFR (T790M) (h) came out at 62%. Also, the IC50 (usually the concentration that gives 50% inhibition) in [1] was 50 nM; in assay [2] it was 30 nM; in assay [3], 620 nM; with A431 (EGFR WT) cells, 50 nM.

For the compound `C#Cc1cccc(Nc2ncnc3cc(OCCOC)c(OCCOC)cc23)c1` [erlotinib], in the assay on lung cancer, the “likelihood of tumor shrinkage (response rate)” value was 8-10% and the “median time to tumor progression” value was “approximately 2 months”.

For `C=C(CN1CCOCC1)C(=O)Nc1cccc(Nc2ncc(Cl)c(Nc3ccccc3C(=O)C(=O)N(C)C)n2)c1` [Example 112, N-(3-(5-chloro-4-(2-(2-(dimethylamino)-2-oxoacetyl)phenylamino)pyrimidin-2-ylamino)phenyl)-2-(morpholinomethyl)acrylamide], the “Activity (control) % ALK (h)” value in the assay with ALK (h) is listed as 21%. In the assay with EGFR (h) (setting [5]), the “Activity (control) % EGFR (h)” value was 85%. Besides, in the assay with EGFR (L858R) (h), the “Activity (control) % EGFR (L858R) (h)” value was found to be 66%. Besides, the “Activity (control) % EGFR (T790M) (h)” value with EGFR (T790M) (h) (setting [5]) was 14%. In addition, the “Activity (control) % EGFR (T790M, L858R) (h)” value in the assay on EGFR (T790M, L858R) (h) is 1%. For the same compound, the “activity against both activated and resistant T790M forms of EGFR in vitro cellular assays” value in assay [4] is “potent activity”.
